pIC50: −log10 of the molar value. Read-outs that look alike come from different tables or passages of the source.
What was measured:
Format in all cases: biochemical
TEM-1 = TEM-1 (Escherichia coli, UniProt P62593); experiment: Inhibitory activity on SBL, fluorescent substrate FC-5; settings: for inhibitory activity on TEM-1 compared to avibactam: comparison in words; for pIC50: read-out: Inhibitory activity on SBL TEM-1 (IC50 class)
NDM-1 = NDM-1 (Klebsiella pneumoniae, UniProt C7C422); experiment: Inhibitory activity on MBL, fluorescent substrate FC-5
Chain of NDM-1 (C7C422 29-270 limits assumed): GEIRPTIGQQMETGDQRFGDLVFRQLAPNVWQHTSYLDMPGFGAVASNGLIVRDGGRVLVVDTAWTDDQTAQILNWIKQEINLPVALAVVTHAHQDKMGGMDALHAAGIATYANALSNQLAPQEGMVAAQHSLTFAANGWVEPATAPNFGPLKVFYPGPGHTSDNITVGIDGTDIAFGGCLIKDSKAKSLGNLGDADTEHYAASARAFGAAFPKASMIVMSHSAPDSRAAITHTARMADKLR

NDM-5 = NDM-5 (Klebsiella pneumoniae, UniProt C7C422, M154L/V88L); experiment: as above
Chain of NDM-5 (C7C422 29-270 V88L/M154L): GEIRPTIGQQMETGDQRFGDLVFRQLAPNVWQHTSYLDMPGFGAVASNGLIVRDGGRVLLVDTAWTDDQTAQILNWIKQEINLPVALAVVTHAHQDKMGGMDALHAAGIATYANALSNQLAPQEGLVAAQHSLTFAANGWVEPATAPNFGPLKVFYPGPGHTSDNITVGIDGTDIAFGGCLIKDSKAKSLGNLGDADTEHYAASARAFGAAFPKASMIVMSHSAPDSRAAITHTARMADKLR

CTX-M-14 = CTX-M-14 (Escherichia coli, UniProt Q9L5C7); experiment: Inhibitory activity on SBL, fluorescent substrate FC-5; settings: for inhibitory activity on CTX-M-14 compared to avibactam: comparison in words; for pIC50: read-out: Inhibitory activity on SBL CTX-M-14 (IC50 class)
Chain of CTX-M-14 (Q9L5C7 entry or part of it): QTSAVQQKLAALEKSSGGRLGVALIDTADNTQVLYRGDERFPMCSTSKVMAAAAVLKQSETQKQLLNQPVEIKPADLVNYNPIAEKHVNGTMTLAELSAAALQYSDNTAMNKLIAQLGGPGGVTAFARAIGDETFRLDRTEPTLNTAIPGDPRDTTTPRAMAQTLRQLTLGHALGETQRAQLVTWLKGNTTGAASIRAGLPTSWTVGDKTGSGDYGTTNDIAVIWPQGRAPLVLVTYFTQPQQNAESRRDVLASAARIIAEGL

VIM-1 = VIM-1 (Pseudomonas aeruginosa, UniProt A0A0F7KYQ8); experiment: Inhibitory activity on MBL, fluorescent substrate FC-5
VIM-2 = VIM-2 (Escherichia coli, UniProt Q5U7L7); experiment: as above; settings: read-out: Inhibitory activity on MBL VIM-2 (IC50 class)
KPC-2 = KPC-2 (Klebsiella pneumoniae, UniProt Q9F663); experiment: Inhibitory activity on SBL, fluorescent substrate FC-5; settings: for inhibitory activity on KPC-2 compared to avibactam: comparison in words
Chain of KPC-2 (Q9F663 25-293 limits assumed): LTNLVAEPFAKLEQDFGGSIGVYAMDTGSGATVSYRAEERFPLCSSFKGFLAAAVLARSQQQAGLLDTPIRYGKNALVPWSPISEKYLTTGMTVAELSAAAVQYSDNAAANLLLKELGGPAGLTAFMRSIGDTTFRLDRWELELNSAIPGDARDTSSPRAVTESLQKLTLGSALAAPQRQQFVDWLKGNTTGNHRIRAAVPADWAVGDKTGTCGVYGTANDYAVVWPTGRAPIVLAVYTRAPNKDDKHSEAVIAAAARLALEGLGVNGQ

OXA-48 = OXA-48 (Klebsiella pneumoniae, UniProt Q6XEC0); experiment: as above; settings: for inhibitory activity on OXA-48 compared to avibactam: comparison in words
Chain of OXA-48 (Q6XEC0 23-265 limits assumed): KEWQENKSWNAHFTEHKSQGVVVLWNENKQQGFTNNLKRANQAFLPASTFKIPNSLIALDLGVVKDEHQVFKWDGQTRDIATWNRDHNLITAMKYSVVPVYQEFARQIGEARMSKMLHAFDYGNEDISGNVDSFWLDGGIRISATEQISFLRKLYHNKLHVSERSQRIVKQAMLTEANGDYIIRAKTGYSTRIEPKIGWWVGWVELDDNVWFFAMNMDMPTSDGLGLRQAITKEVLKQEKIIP

IMP-1 = IMP-1 (Serratia marcescens, UniProt P52699); experiment: Inhibitory activity on MBL, fluorescent substrate FC-5
Chain of IMP-1 (P52699 19-246 limits assumed): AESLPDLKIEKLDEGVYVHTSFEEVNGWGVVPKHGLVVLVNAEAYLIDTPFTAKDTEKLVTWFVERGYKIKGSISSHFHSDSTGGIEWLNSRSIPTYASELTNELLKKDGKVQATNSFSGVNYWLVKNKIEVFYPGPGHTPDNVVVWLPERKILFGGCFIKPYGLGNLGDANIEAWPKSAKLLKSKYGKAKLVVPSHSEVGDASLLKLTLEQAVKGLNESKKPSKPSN

[1] = read-out: Inhibitory activity on MBL NDM-1 (IC50 class)
[2] = read-out: Inhibitory activity on MBL NDM-5 (IC50 class)
[3] = read-out: Inhibitory activity on MBL VIM-1 (IC50 class)
[4] = read-out: Inhibitory activity on SBL KPC-2 (IC50 class)
[5] = read-out: Inhibitory activity on SBL OXA-48 (IC50 class)
[6] = read-out: Inhibitory activity on MBL IMP-1 (IC50 class)
[7] = salts, read-out: inhibitory activity at a nanomolar-level on KPC-2
[8] = salts, read-out: inhibitory activity at a nanomolar-level on OXA-48

Chain of TEM-1 (P62593 24-286 limits assumed): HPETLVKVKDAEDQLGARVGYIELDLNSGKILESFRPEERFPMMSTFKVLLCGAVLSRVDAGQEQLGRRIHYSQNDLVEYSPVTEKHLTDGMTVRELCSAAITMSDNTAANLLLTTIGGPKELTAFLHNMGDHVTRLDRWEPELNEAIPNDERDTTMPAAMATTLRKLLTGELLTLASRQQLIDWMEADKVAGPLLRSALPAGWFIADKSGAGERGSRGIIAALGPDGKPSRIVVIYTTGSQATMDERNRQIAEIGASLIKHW

In the case of `Nc1ccc(-c2cn(Cc3ccc4c(c3C(=O)O)OB(O)CC4)nn2)cc1` [Compound 59], the “inhibitory activity on TEM-1 compared to avibactam” value (TEM-1) was “better or comparable”, the pIC50 (TEM-1) was over 8.00 and the pIC50 (NDM-1; [1]) was 6.00 to 8.00. The pIC50 (NDM-1; read-out: inhibitory activity at a nanomolar-level on NDM-1) was over 6.00, the pIC50 (NDM-5; [2]) was 6.00 to 8.00 and the pIC50 (NDM-5; read-out: inhibitory activity at a nanomolar-level on NDM-5) was over 6.00. The “inhibitory activity on CTX-M-14 compared to avibactam” value (CTX-M-14) was “better or comparable”, the pIC50 (CTX-M-14) was over 8.00 and the pIC50 (VIM-1; VIM-1 and/or VIM-2, read-out: inhibitory activity at a nanomolar-level on VIM-1 and/or VIM-2) was over 6.00. For the same compound, the pIC50 (VIM-1; [3]) was 6.00 to 8.00, the pIC50 (VIM-2) was 6.00 to 8.00 and the “inhibitory activity on KPC-2 compared to avibactam” value (KPC-2) was “better or comparable”. The pIC50 (KPC-2; [4]) was over 8.00, the “inhibitory activity on OXA-48 compared to avibactam” value (OXA-48) was “better or comparable” and the pIC50 (OXA-48; [5]) was over 8.00. It also gave a pIC50 (IMP-1; IMP-1 and/or IMP-4, read-out: inhibitory activity at a nanomolar-level on IMP-1 and/or IMP-4) of over 6.00 and a pIC50 (IMP-1; [6]) of 6.00 to 8.00.

For `O=C(O)c1c(Cn2ncc3c2CNC3)ccc2c1OB(O)CC2` [Compound 66], the pIC50 (TEM-1) was 6.00 to 8.00, the pIC50 (CTX-M-14) was 6.00 to 8.00 and the pIC50 (KPC-2; [4]) was over 8.00. It also gave a pIC50 (OXA-48; [5]) of over 8.00.

Work on `NCCc1cnn(Cc2ccc3c(c2C(=O)O)OB(O)CC3)c1` [Compound 43] yielded a pIC50 (KPC-2; [4]) of over 8.00.

Work on `NCCc1ccc(-c2cn(Cc3ccc4c(c3C(=O)O)OB(O)CC4)nn2)cc1` [63-tartaric acid] yielded a pIC50 (KPC-2; [4]) of over 8.00 and a pIC50 (KPC-2; [7]) of over 8.00.

In the case of `NCc1cnn(Cc2ccc3c(c2C(=O)O)OB(O)CC3)c1` [Compound 21], the pIC50 (KPC-2; [4]) was over 8.00 and the pIC50 (OXA-48; [5]) was over 8.00.

Compound `NCCc1cnn(Cc2ccc3c(c2C(=O)O)OB(O)CC3)c1` [43-maleic acid] has a pIC50 (KPC-2; [7]) of over 8.00.

Work on `C[C@]1(Cn2ccnn2)[C@H](C(=O)O)N2C(=O)C[C@H]2S1(=O)=O` [Tazobactam, reference compound] yielded a pIC50 (NDM-1; [1]) of under 4.00, a pIC50 (NDM-5; [2]) of under 4.00 and a pIC50 (VIM-1; Inhibitory activity on MBL VIM-1 (IC50 class)) of under 4.00. The pIC50 (VIM-2) was under 4.00, the pIC50 (KPC-2; [4]) was 4.00 to 6.00 and the pIC50 (OXA-48; Inhibitory activity on SBL OXA-48 (IC50 class)) was 4.00 to 6.00. It also gave a pIC50 (IMP-1; [6]) of under 4.00.

`O=C(O)c1c(Cn2ncc3c2CNC3)ccc2c1OB(O)CC2` [66-oxalic acid] showed a pIC50 (KPC-2; [7]) of over 8.00 and a pIC50 (OXA-48; [8]) of over 8.00.

`N=C(N)N1CC(c2cn(Cc3ccc4c(c3C(=O)O)OB(O)CC4)nn2)C1` [Compound 49-Na] showed a pIC50 (KPC-2; [7]) of over 8.00.

In the case of `N=C(N)N1Cc2cn(Cc3ccc4c(c3C(=O)O)OB(O)CC4)nc2C1` [58-toluene sulfonic acid], the pIC50 (KPC-2; [7]) was over 8.00 and the pIC50 (OXA-48; [8]) was over 8.00.

With `O=C(O)c1c(Cn2cc3c(n2)CNC3)ccc2c1OB(O)CC2` [Compound 56-Na] the pIC50 (TEM-1) was 6.00 to 8.00, the pIC50 (NDM-1; [1]) was 6.00 to 8.00 and the pIC50 (CTX-M-14) was 6.00 to 8.00. For the same compound, the pIC50 (VIM-1; [3]) was 6.00 to 8.00, the pIC50 (VIM-2) was 6.00 to 8.00 and the pIC50 (KPC-2; [4]) was over 8.00. For the same compound, the pIC50 (KPC-2; [7]) was over 8.00, the pIC50 (OXA-48; [5]) was over 8.00 and the pIC50 (OXA-48; [8]) was over 8.00. It also gave a pIC50 (IMP-1; [6]) of 4.00 to 6.00.

`NCc1ccc(-c2cn(Cc3ccc4c(c3C(=O)O)OB(O)CC4)nn2)cc1` [Compound 63-Na] was tested, and the pIC50 (KPC-2; [7]) was over 8.00 and the pIC50 (OXA-48; [8]) was over 8.00.

Compound `N=C(N)NCc1ccc(-c2cn(Cc3ccc4c(c3C(=O)O)OB(O)CC4)nn2)cc1` [64-citric acid] has a pIC50 (KPC-2; [7]) of over 8.00 and a pIC50 (OXA-48; [8]) of over 8.00.

With `N=C(N)N1Cc2cn(Cc3ccc4c(c3C(=O)O)OB(O)CC4)nc2C1` [Compound 58] the pIC50 (TEM-1) was over 8.00, the pIC50 (KPC-2; [4]) was over 8.00 and the pIC50 (OXA-48; [5]) was over 8.00.

In the case of `NCc1cnn(Cc2ccc3c(c2C(=O)O)OB(O)CC3)c1` [21-phosphoric acid], the pIC50 (KPC-2; [7]) was over 8.00 and the pIC50 (OXA-48; [8]) was over 8.00.

`NC1(c2cn(Cc3ccc4c(c3C(=O)O)OB(O)CC4)nn2)CC1` [41-propionic acid] showed a pIC50 (KPC-2; [7]) of over 8.00.

Compound `NC1(c2cn(Cc3ccc4c(c3C(=O)O)OB(O)CC4)nn2)CC1` [Compound 41] has a pIC50 (TEM-1) of 6.00 to 8.00, a pIC50 (CTX-M-14) of 6.00 to 8.00 and a pIC50 (VIM-2) of 6.00 to 8.00. For the same compound, the pIC50 (KPC-2; [4]) was over 8.00 and the pIC50 (OXA-48; [5]) was 6.00 to 8.00.

In the case of `N=C(N)NCc1ccc(-c2cn(Cc3ccc4c(c3C(=O)O)OB(O)CC4)nn2)cc1` [Compound 64], the “inhibitory activity on TEM-1 compared to avibactam” value (TEM-1) was “better or comparable”, the “inhibitory activity on CTX-M-14 compared to avibactam” value (CTX-M-14) was “better or comparable” and the “inhibitory activity on KPC-2 compared to avibactam” value (KPC-2) was “better or comparable”. For the same compound, the pIC50 (KPC-2; [4]) was over 8.00, the “inhibitory activity on OXA-48 compared to avibactam” value (OXA-48) was “better or comparable” and the pIC50 (OXA-48; [5]) was over 8.00.

Reference: patent US20250205259A1, “CLASS OF 7-((FIVE-MEMBERED HETEROCYCLIC)METHYL)-8-CARBOXYLIC ACID-BENZO CYCLIC BORATE DERIVATIVES AND USES THEREOF” (priority 2022, published 2025)
